According to US10005773B2, “1-(4-pyrimidinyl)-1H-pyrrolo[3,2-c]pyridine derivatives as NIK inhibitors” (Janssen Pharmaceutica NV, priority 2013, dated 2018):
pEC50, pIC50: −log10 of the molar value.

Assays:
[1] = biological target: T1, Recombinant Human NF-kappaB-Inducing Kinase (NIK/MAP3K14) (Homo sapiens, UniProt Q99558); test: Biological Assay A: inhibition of recombinant human NIK/MAP3K14 activity (MSD, MBP substrate); conditions: 25 μM ATP, 10 nM NIK/MAP3K14, 1 h at 25° C.; averaged over all batches; read-out: Biochemical (MSD MBP) IC50
T1 sequence (Q99558 whole entry): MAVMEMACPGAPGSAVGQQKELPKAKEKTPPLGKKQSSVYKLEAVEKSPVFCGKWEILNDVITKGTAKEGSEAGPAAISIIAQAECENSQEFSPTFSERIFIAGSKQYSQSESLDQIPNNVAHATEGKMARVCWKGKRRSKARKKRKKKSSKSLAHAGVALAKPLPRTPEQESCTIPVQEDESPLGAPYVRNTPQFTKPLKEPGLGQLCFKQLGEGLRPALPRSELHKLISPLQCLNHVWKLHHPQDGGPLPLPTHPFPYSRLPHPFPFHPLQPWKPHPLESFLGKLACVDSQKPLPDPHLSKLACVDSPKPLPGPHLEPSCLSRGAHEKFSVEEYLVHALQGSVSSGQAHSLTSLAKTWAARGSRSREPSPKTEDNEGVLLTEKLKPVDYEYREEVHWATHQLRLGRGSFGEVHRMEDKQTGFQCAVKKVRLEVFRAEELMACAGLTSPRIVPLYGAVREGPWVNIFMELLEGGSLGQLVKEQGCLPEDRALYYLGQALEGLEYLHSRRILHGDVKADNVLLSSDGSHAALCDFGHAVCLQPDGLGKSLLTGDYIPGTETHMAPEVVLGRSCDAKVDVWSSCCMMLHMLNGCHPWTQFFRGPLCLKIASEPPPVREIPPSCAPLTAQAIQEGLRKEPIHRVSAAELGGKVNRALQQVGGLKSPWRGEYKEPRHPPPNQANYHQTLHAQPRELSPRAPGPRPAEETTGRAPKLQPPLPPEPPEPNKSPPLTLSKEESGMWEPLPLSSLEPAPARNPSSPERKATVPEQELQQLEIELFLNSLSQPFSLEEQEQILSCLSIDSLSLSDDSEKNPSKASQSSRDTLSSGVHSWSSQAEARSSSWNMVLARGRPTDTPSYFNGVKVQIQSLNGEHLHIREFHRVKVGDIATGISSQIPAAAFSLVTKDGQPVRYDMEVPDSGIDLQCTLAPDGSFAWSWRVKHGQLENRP
Method: Inhibition of Recombinant Human NF-kappaB-Inducing Kinase (NIKIMAP3K14) Activity
Assay buffer was 50 mM Tris pH 7.5 containing 1 mM ethylene glycol tetraacetic acid (EGTA), 1 mM dithiothreitol (DTT), 0.1 mM Na3VO4, 5 mM MgCl2, 0.01% Tween® 20. Assays were carried out in 384 well Mesoscale high binding plates which had been coated with myelin basic protein (MBP) and blocked with bovine serum albumin to prevent non-specific protein binding. All compounds tested were dissolved in dimethyl sulfoxide (DMSO) and further dilutions were made in assay buffer. Final DMSO concentration was 1% (v/v) in assays. Incubations consisted of compound (1% DMSO in control and blank wells), 25 μM Adenosine-5′-triphosphate (ATP), and 10 nM NIK/MAP3K14 substituting enzyme with buffer in the blank wells. Incubations were carried out for 1 h at 25° C. and were followed by washing and sequential incubation with rabbit anti-phospho-MBP and anti-rabbit Ig Sulfotag antibody before reading bound Sulfotag on a Mesoscale Discovery. Signal obtained in the wells containing blank samples was subtracted from all other wells and IC50's were determined by fitting a sigmoidal curve to % inhibition of control versus Log10 compound concentration.

[2] = biological target: T1, Recombinant Human NF-kappaB-Inducing Kinase (NIK/MAP3K14); test: Biological Assay A2: inhibition of auto-phosphorylation of recombinant human NIK/MAP3K14 (AlphaScreen); format: biochemical; conditions: 25 microM ATP, 0.2 nM NIK/MAP3K14, 1 h at 25° C., averaged over all batches, read-out: Alpha-Screen IC50
Method: Inhibition of Auto-Phosphorylation of Recombinant Human NF-kappaB-Inducing Kinase (NIKIMAP3K14) Activity (AlphaScreen®)
NIK/MAP3K14 auto-phosphorylation activity was measured using the AlphaScreen® (ascreen) format (Perkin Elmer). All compounds tested were dissolved in dimethyl sulfoxide (DMSO) and further dilutions were made in assay buffer. Final DMSO concentration was 1% (v/v) in assays. Assay buffer was 50 mM Tris pH 7.5 containing 1 mM EGTA (ethylene glycol tetraacetic acid), 1 mM DTT (dithiothreitol), 0.1 mM Na3VO4, 5 mM MgCl2, 0.01% Tween® 20. Assays were carried out in 384 well Alphaplates (Perkin Elmer). Incubations consisted of compound, 25 microM Adenosine-5′-triphosphate (ATP), and 0.2 nM NIK/MAP3K14. Incubations were initiated by addition of GST-tagged NIK/MAP3K14 enzyme, carried out for 1 h at 25° C. and terminated by addition of stop buffer containing anti-phospho-IKK Ser176/180 antibody. Protein A Acceptor and Glutathione-Donor beads were added before reading using an EnVision® Multilabel Plate Reader (Perkin Elmer). Signal obtained in the wells containing blank samples was subtracted from all other wells and IC50's were determined by fitting a sigmoidal curve to % inhibition of control versus Log10 compound concentration.

[3] = system: P-IKKα levels in L363 cells; test: Biological Assay B: effect of compounds on P-IKKα levels in L363 cells; format: cell-based; conditions: Homo sapiens, L-363, BAFF stimulated, 2 hr treatment, averaged over all batches, read-out: IKKα Cellular IC50
Method: Effect of Compounds on P-IKKα Levels in L363 Cells
All compounds tested were dissolved in DMSO and further dilutions were made in culture medium. Final DMSO concentration was 1% (v/v) in cell assays. The human L363 cells (ATCC) were cultured in RPMI 1640 medium supplemented with GlutaMax and 10% fetal calf serum (PAA). Cells were routinely maintained at densities of 0.2×10^6 cells per ml-1×10^6 cells per ml at 37° C. in a humidified 5% CO2 atmosphere. Cells were passaged twice a week splitting back to obtain the low density. Cells were seeded in 96 well plates (Nunc 167008) at 2×10^6 per ml media in a volume of 75 μl per well plus 25 μl 1 μg/ml recombinant human B-cell activating factor (BAFF/BLyS/TNFSF13B). Seeded cells were incubated at 37° C. in a humidified 5% CO2 atmosphere for 24 hr. Drugs and/or solvents were added (20 μl) to a final volume of 120 μl. Following 2 hr treatment plates were removed from the incubator and cell lysis was achieved by the addition of 30 μl 5× lysis buffer followed by shaking on a plate shaker at 4° C. for 10 min. At the end of this incubation lysed cells were centrifuged at 800×g for 20 min at 4° C. and the lysate was assessed for P-IKKα levels by sandwich immuno-assay carried out in anti-rabbit antibody coated Mesoscale plates. Within an experiment, the results for each treatment were the mean of 2 replicate wells. For initial screening purposes, compounds were tested using an 8 point dilution curve (serial 1:3 dilutions). For each experiment, controls (containing MG132 and BAFF but no test drug) and a blank incubation (containing MG132 and BAFF and 10 μM ADS125117, a test concentration known to give full inhibition) were run in parallel. The blank incubation value was subtracted from all control and sample values. To determine the IC50 a sigmoidal curve was fitted to the plot of % inhibition of control P-IKKα levels versus Log10 compound concentration.

JJN-3 cells = test: Biological Assay C: antiproliferative activity on JJN-3 cells (CellTiter-Glo); format: cell-based; conditions: Homo sapiens, 72 hr treatment
Method: (§1) Determination of Antiproliferative Activity on LP-1, L-363 and JJN-3 Cells
(§2) All compounds tested were dissolved in DMSO and further dilutions were made in culture medium. Final DMSO concentration was 0.3% (v/v) in cell proliferation assays. Viability was assessed using CellTiter-Glo cell viability assay kit (Promega). The human LP-1, L-363 and JJN-3 cells (DSMZ) were cultured in RPMI 1640 medium supplemented with 2 mM L-glutamine, and 10% fetal calf serum (PAA). Cells were routinely kept as suspension cells at 37° C. in a humidified 5% CO2 atmosphere. Cells were passaged at a seeding density of 0.2×10^6/ml twice a week. Cells were seeded in black tissue culture treated 96-well plates (Perkin Elmer). Densities used for plating ranged from 2,000 to 6,000 cells per well in a total volume of 75 μl medium. After twenty four hours, drugs and/or solvents were added (25 μl) to a final volume of 100 μl. Following 72 hr of treatment plates were removed from the incubator and allowed to equilibrate to room temperature for approx 10 min. 100 μl CellTiter-Glo reagent was added to each well that was then covered (Perkin Elmer Topseal) and shaken on plate shaker for 10 min. Luminescence was measured on a HTS Topcount (Perkin Elmer). Within an experiment, the results for each treatment were the mean of 2 replicate wells. For initial screening purposes, compounds were tested using a 9 point dilution curve (serial 1:3 dilutions). For each experiment, controls (containing no drug) and a blank incubation (containing cells read at the time of compound addition) were run in parallel. The blank value was subtracted from all control and sample values. For each sample, the mean value for cell growth (in relative light units) was expressed as a percentage of the mean value for cell growth of the control.

L-363 cells = test: Biological Assay C: antiproliferative activity on L-363 cells (CellTiter-Glo); format: cell-based; conditions: Homo sapiens, 72 hr treatment
Method: as §1, §2

LP-1 cells = test: Biological Assay C: antiproliferative activity on LP-1 cells (CellTiter-Glo); format: cell-based; conditions: Homo sapiens, 72 hr treatment
Method: as §1, §2

Row | pIC50 [1] | pIC50 [2] | pIC50 [3] | Compound | pEC50 (JJN-3 cells) | pEC50 (L-363 cells) | pEC50 (LP-1 cells)
1 | 8.16 | 7.77 | 7.42 | Nc1ncc(F)c(-n2cc(CCCO)c3cnc(C#CC4(O)CCCC4)cc32)n1 [Compound 30] | 6.04 | 5.77 | 5.39
2 | 7.89 | 7.85 | 7.10 | CC(C)(O)C#Cc1cc2c(cn1)c(CCC(C)(C)O)cn2-c1ccnc(N)n1 [Compound 31] | 6.45 | 6.01 | 5.15
3 | 7.66 | 7.92 | 6.81 | CC(C)(O)CCc1cn(-c2ccnc(N)n2)c2cc(C#CC3(O)CCCC3)ncc12 [Compound 32] | 6.33 | 5.75 | 5.16
4 | 7.28 | 7.60 | 6.59 | CC(C)(O)C#Cc1cc2c(cn1)c(CCC(C)(C)O)cn2-c1nc(N)ncc1F [Compound 33] | 5.76 | 6.04 | 5.27
5 | 7.96 | 7.89 | 6.70 | CC(C)(O)CCc1cn(-c2nc(N)ncc2F)c2cc(C#CC3(O)CCCC3)ncc12 [Compound 34] | 5.77 | 5.65 | 5.47
6 | 7.05 | 7.31 | 6.79 | CC(C)(O)C#Cc1cc2c(cn1)c(/C=C/C#N)cn2-c1ccnc(N)n1 [Compound 35] | 6.38 | 6.02 | 5.69
7 | 7.60 | 7.92 | 7.74 | CC(C)(O)C#Cc1cc2c(cn1)c(CCC#N)cn2-c1ccnc(N)n1 [Compound 36] | 6.70 | 6.44 | 5.34
8 | 8.29 | 7.54 | 6.92 | N#CCCc1cn(-c2ccnc(N)n2)c2cc(C#CC3(O)CCCC3)ncc12 [Compound 37] | 6.06 | 5.88 | 5.29
